# Experimental data taken from US20100311741A1, “Bicyclosulfonyl Acid (BCSA) Compounds and Their Use as Therapeutic Agents” (INHIBOX LTD., priority 2007, published 2010).
row,melting point,Structure (SMILES)
1,184 to 185 °C,"O=C(CC1c2ccccc2S(=O)(=O)N1c1ccc(Cl)cc1)NO (stereo not drawn) [Compound (5.10), 2-[2-(4-Chlorophenyl)-1,1-dioxo-2,3-dihydro-1H-benzo[d]isothiazol-3-yl]-N-hydroxyacetamide]"
2,> 161 °C (dec.),"COc1cccc2c1S(=O)(=O)N(c1ccccc1)C2CC(=O)NO (stereo not drawn) [Compound 54.10, (7-Methoxy-1,1-dioxo-2-phenyl-2,3-dihydro-1H-benzo[d]isothiazol-3-yl)-N-hydroxyacetamide]"
3,189 to 190 °C,"COc1ccc(N2C(CC(=O)NO)c3ccccc3S2(=O)=O)cn1 (stereo not drawn) [Compound (5.40), 2-[2-(6-Methoxy-pyridin-3-yl)-1,1-dioxo-2,3-dihydro-1Hbenzo[d]isothiazol-3-yl]-N-hydroxyacetamide]"
4,185 to 186 °C,"COc1ccc(N2C(CC(=O)NO)c3ccccc3S2(=O)=O)cc1 (stereo not drawn) [Compound (5.8), 2-[2-(4-Methoxyphenyl)-1,1-dioxo-2,3-dihydro-1H-benzo[d]isothiazol-3-yl]-N-hydroxyacetamide]"
5,> 188 °C (dec.),"O=C(CC1c2cccc(Cl)c2S(=O)(=O)N1c1ccccc1)NO (stereo not drawn) [Compound 54.7, 2-(7-Chloro-1,1-dioxo-2-phenyl-2,3-dihydro-1H-benzo[d]isothiazol-3-yl)-N-hydroxyacetamide]"
6,182 to 183 °C,"O=C(CC1c2ccc(Br)cc2S(=O)(=O)N1c1ccccc1)NO (stereo not drawn) [Compound (5.68), 2-(6-Bromo-1,1-dioxo-2-phenyl-2,3-dihydro-1H-benzo[d]isothiazol-3-yl)-N-hydroxyacetamide]"
7,180 to 182 °C,"COc1ccc2c(c1)C(CC(=O)NO)N(c1ccccc1)S2(=O)=O (stereo not drawn) [Compound (5.62), 2-(5-Methoxy-1,1-dioxo-2-phenyl-2,3-dihydro-1H-benzo[d]isothiazol-3-yl)-N-hydroxyacetamide]"
8,188 to 190 °C,"COc1cccc2c1C(CC(=O)NO)N(c1ccccc1)S2(=O)=O (stereo not drawn) [Compound 54.1, 2-(4-Methoxy-1,1-dioxo-2-phenyl-2,3-dihydro-1H-benzo[d]isothiazol-3-yl)-N-hydroxyacetamide]"
9,181 to 182 °C,"O=C(CC1c2ccccc2S(=O)(=O)N1c1cccc(Oc2ccccc2)c1)NO (stereo not drawn) [Compound (5.9), 2-[2-(3-Phenoxyphenyl)-1,1-dioxo-2,3-dihydro-1H-benzo[d]isothiazol-3-yl]-N-hydroxyacetamide]"
10,192 to 194 °C (dec.),"O=C(CC1c2ccccc2S(=O)(=O)N1c1ccc(-n2cccc2)cc1)NO (stereo not drawn) [Compound (5.26), 2-[1,1-Dioxo-2-(4-pyrrol-1-yl-phenyl)-2,3-dihydro-1H-benzo[d]isothiazol-3-yl]-N-hydroxyacetamide]"
11,155 to 157 °C (dec.),"C#CCOc1ccc(N2C(CC(=O)NO)c3ccccc3S2(=O)=O)cc1 (stereo not drawn) [Compound (5.53), 2-[1,1-Dioxo-2-(4-prop-2-ynyloxy-phenyl)-2,3-dihydro-1H-benzo[d]isothiazol-3-yl]-N-hydroxyacetamide]"
12,> 170 °C (dec.),"O=C(CC1c2ccccc2S(=O)(=O)N1c1ccc(OCc2ccccn2)cc1)NO (stereo not drawn) [Compound (5.50), 2-{1,1-Dioxo-2-[4-(pyridin-2-ylmethoxy)phenyl]-2,3-dihydro-1H-benzo[d]isothiazol-3-yl}-N-hydroxyacetamide]"
13,204 to 206 °C,"O=C(CC1c2c(Cl)cccc2S(=O)(=O)N1c1ccccc1)NO (stereo not drawn) [Compound 54.2, 2-(4-Chloro-1,1-dioxo-2-phenyl-2,3-dihydro-1H-benzo[d]isothiazol-3-yl)-N-hydroxyacetamide]"
14,174 to 175 °C,"O=C(CC1c2ccccc2S(=O)(=O)N1c1ccc(Oc2ccccc2)cc1)NO (stereo not drawn) [Compound (5.24), 2-[1,1-Dioxo-2-(4-phenoxy-phenyl)-2,3-dihydro-1H-benzo[d]isothiazol-3-yl]-N-hydroxyacetamide]"
15,166 to 168 °C (dec.),"C=CCOc1ccc(N2C(CC(=O)NO)c3ccccc3S2(=O)=O)cc1 (stereo not drawn) [Compound (5.47), 2-[2-(4-Allyloxy-phenyl)-1,1-dioxo-2,3-dihydro-1H-benzo[d]isothiazol-3-yl]-N-hydroxyacetamide]"
16,204 to 206 °C,"O=C(CC1c2ccccc2S(=O)(=O)N1c1ccc(N2CCOCC2)cc1)NO (stereo not drawn) [Compound (5.32), 2-[2-(4-Morpholin-4-ylphenyl)-1,1-dioxo-2,3-dihydro-1H-benzo[d]isothiazol-3-yl]-N-hydroxyacetamide]"
17,185 to 186 °C,"CN(C)c1ccc(N2C(CC(=O)NO)c3ccccc3S2(=O)=O)cc1 (stereo not drawn) [Compound (5.31), 2-[2-(4-Dimethylaminophenyl)-1,1-dioxo-2,3-dihydro-1H-benzo[d]isothiazol-3-yl]-N-hydroxyacetamide]"
18,147 to 148 °C,"COc1cccc(N2C(CC(=O)NO)c3ccccc3S2(=O)=O)c1 (stereo not drawn) [Compound (5.7), 2-[2-(3-Methoxyphenyl)-1,1-dioxo-2,3-dihydro-1H-benzo[d]isothiazol-3-yl]-N-hydroxyacetamide]"
19,197 to 198 °C (dec.),"CSc1ccc(N2C(CC(=O)NO)c3ccccc3S2(=O)=O)cc1 (stereo not drawn) [Compound (5.20), 2-[1,1-Dioxo-2-(4-methylsulfanylphenyl)-2,3-dihydro-1H-benzo[d]isothiazol-3-yl]-N-hydroxyacetamide]"
20,141 to 143 °C,"O=C(CC1c2ccccc2S(=O)(=O)N1C1CCN(Cc2ccccc2)CC1)NO (stereo not drawn) [Compound (5.42), 2-[2-(1-Benzylpiperidin-4-yl)-1,1-dioxo-2,3-dihydro-1H-benzo[d]isothiazol-3-yl]-N-hydroxyacetamide]"

# Continued, compound first:
row,Structure (SMILES),melting point
1,"O=C(CC1c2ccccc2S(=O)(=O)N1c1ccc(OCc2ccnc3ccccc23)cc1)NO (stereo not drawn) [Compound (5.57), 2-{1,1-Dioxo-2-[4-(quinolin-4-ylmethoxy)phenyl]-2,3-dihydro-1H-benzo[d]isothiazol-3-yl}-N-hydroxyacetamide]",218 to 220 °C (dec.)
2,"Cc1cc(COc2ccc(N3C(CC(=O)NO)c4ccccc4S3(=O)=O)cc2)c2cc(Cl)ccc2n1 (stereo not drawn) [Compound (5.59), 2-{2-[4-(6-Chloro-2-methylquinolin-4-ylmethoxy)-phenyl]-1,1-dioxo-2,3-dihydro-1H-benzo[d]isothiazol-3-yl}-N-hydroxyacetamide]",> 215 °C (dec.)
3,"Cc1cc(COc2ccc(N3C(CC(=O)NO)c4ccccc4S3(=O)=O)cc2)c2cc(F)ccc2n1 (stereo not drawn) [Compound (5.58), 2-{2-[4-(6-Fluoro-2-methyl-quinolin-4-ylmethoxy)-phenyl]-1,1-dioxo-2,3-dihydro-1H-benzo[d]isothiazol-3-yl}-N-hydroxyacetamide]",> 140 °C (dec.)
4,"CCCCOc1ccc(N2C(CC(=O)NO)c3ccccc3S2(=O)=O)cc1 (stereo not drawn) [Compound (5.34), 2-[2-(4-Butoxyphenyl)-1,1-dioxo-2,3-dihydro-1H-benzo[d]isothiazol-3-yl]-N-hydroxyacetamide]",165 to 166 °C
5,"COc1cc(Cl)cc2c1S(=O)(=O)N(c1ccccc1)C2CC(=O)NO (stereo not drawn) [Compound 54.11, (5-Chloro-7-Methoxy-1,1-dioxo-2-phenyl-2,3-dihydro-1H-benzo[d]isothiazol-3-yl)-N-hydroxyacetamide]",> 170 °C (dec.)
6,"O=C(CC1c2ccccc2S(=O)(=O)N1c1ccc(-c2cnco2)cc1)NO (stereo not drawn) [Compound (5.29), 2-[2-(4-Oxazol-5-yl-phenyl)-1,1-dioxo-2,3-dihydro-1H-benzo[d]isothiazol-3-yl]-N-hydroxyacetamide]",138 to 140 °C (dec.)
7,"Cc1nc(-c2ccc(N3C(CC(=O)NO)c4ccccc4S3(=O)=O)cc2)cs1 (stereo not drawn) [Compound (5.30), 2-{2-[4-(2-Methylthiazol-4-yl)phenyl]-1,1-dioxo-2,3-dihydro-1H-benzo[d]isothiazol-3-yl}-N-hydroxyacetamide]",179 to 181 °C (dec.)
8,"COc1ccc2c(c1Cl)C(CC(=O)NO)N(c1ccccc1)S2(=O)=O (stereo not drawn) [Compound 54.12, (4-Chloro-5-Methoxy-1,1-dioxo-2-phenyl-2,3-dihydro-1H-benzo[d]isothiazol-3-yl)-N-hydroxyacetamide]",184 to 188 °C (dec.)
9,"O=C(CC1c2ccccc2S(=O)(=O)N1c1ccc(-n2ccnc2)cc1)NO (stereo not drawn) [Compound (5.27), 2-[2-(4-Imidazol-1-yl-phenyl)-1,1-dioxo-2,3-dihydro-1H-benzo[d]isothiazol-3-yl]-N-hydroxyacetamide]",199 to 201 °C (dec.)
10,"O=C(CC1c2cc3c(cc2S(=O)(=O)N1c1ccccc1)OCCO3)NO (stereo not drawn) [Compound (5.63), 2-(1,1-Dioxo-2-phenyl-2,3,6,7-tetrahydro-1H-5,8-dioxa-thia-2-aza-cyclopenta[b]naphthalen-3-yl)-N-hydroxyacetamide]",202 to 204 °C (dec.)
11,"O=C(CC1c2ccccc2S(=O)(=O)N1c1ccc(OCc2ccncc2)cc1)NO (stereo not drawn) [Compound (5.48), 2-{1,1-Dioxo-2-[4-(pyridin-4-ylmethoxy)phenyl]-2,3-dihydro-1H-benzo[d]isothiazol-3-yl}-N-hydroxyacetamide]",212 to 214 °C (dec.)
12,"O=C(CC1c2ccccc2S(=O)(=O)N1c1ccc(-n2cncn2)cc1)NO (stereo not drawn) [Compound (5.28), 2-[1,1-Dioxo-2-(4-[1,2,4]triazol-1-yl-phenyl)-2,3-dihydro-1H-benzo[d]isothiazol-3-yl]-N-hydroxyacetamide]",205 to 207 °C (dec.)
13,"O=C(CC1NS(=O)(=O)c2ccccc21)NO (stereo not drawn) [Compound (5.37), 2-(1,1-Dioxo-2,3-dihydro-1H-benzo[d]isothiazol-3-yl)-N-hydroxyacetamide]",152 to 154 °C
14,"Cc1cc(C(C)Oc2ccc(N3C(CC(=O)NO)c4ccccc4S3(=O)=O)cc2)c2ccccc2n1 (stereo not drawn) [Compound (5.56), 2-(2-{4-[1-(2-Methylquinolin-4-yl)ethoxy]-phenyl}-1,1-dioxo-2,3-dihydro-1H-benzo[d]isothiazol-3-yl)-N-hydroxyacetamide]",200 to 204 °C (dec.)
15,"CCC#CCOc1ccc(N2C(CC(=O)NO)c3ccccc3S2(=O)=O)cc1 (stereo not drawn) [Compound (5.52), 2-[1,1-Dioxo-2-(4-pent-2-ynyloxy-phenyl)-2,3-dihydro-1H-benzo[d]isothiazol-3-yl]-N-hydroxyacetamide]",135 to 137 °C (dec.)
16,"COc1cc2c(cc1OC)S(=O)(=O)N(c1ccccc1)C2CC(=O)NO (stereo not drawn) [Compound (5.64), 2-(5,6-Dimethoxy-1,1-dioxo-2-phenyl-2,3-dihydro-1H-benzo[d]isothiazol-3-yl)-N-hydroxyacetamide]",197 to 199 °C (dec.)
